Experimental findings from patent US20250019373A1, “ARYL OR HETEROARYL DERIVATIVE, AND PHARMACEUTICAL COMPOSITION COMPRISING SAME AS ACTIVE INGREDIENT FOR PREVENTION OR TREATMENT OF KINASE-RELATED DISEASES” (VORONOI INC., priority 2021, published 2025) are described below.

The test system of one test is HT-29 cells. The test can be described thus: Cell necrosis inhibitory activity under necroptosis-inducing conditions (TNF-α, Z-VAD-FMK, LCL161) in HT-29 cells, Cell Titer-Glo. It is filed as cell-based. Conditions: Homo sapiens, 100 ng/mL TNF-α + 25 μM Z-VAD-FMK + Smac mimetic LCL161, 24 hours, cell viability. In a few lines:
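HT-29 cells seeded 24 h, then necroptosis induced with 100 ng/mL TNF-α, 25 μM Z-VAD-FMK and 10 μM LCL161 for 10 min before compound (11 points, 3-fold, top 0.1 or 1 μM; 0.05% DMSO). After 24 h, viability by CellTiter-Glo luminescence relative to untreated controls gave EC50 (nM).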

Another test concerns the target T1, RIPK1 (Homo sapiens, UniProt Q13546).
T1 construct: purchased DiscoverX
T1 sequence (Q13546 1-671): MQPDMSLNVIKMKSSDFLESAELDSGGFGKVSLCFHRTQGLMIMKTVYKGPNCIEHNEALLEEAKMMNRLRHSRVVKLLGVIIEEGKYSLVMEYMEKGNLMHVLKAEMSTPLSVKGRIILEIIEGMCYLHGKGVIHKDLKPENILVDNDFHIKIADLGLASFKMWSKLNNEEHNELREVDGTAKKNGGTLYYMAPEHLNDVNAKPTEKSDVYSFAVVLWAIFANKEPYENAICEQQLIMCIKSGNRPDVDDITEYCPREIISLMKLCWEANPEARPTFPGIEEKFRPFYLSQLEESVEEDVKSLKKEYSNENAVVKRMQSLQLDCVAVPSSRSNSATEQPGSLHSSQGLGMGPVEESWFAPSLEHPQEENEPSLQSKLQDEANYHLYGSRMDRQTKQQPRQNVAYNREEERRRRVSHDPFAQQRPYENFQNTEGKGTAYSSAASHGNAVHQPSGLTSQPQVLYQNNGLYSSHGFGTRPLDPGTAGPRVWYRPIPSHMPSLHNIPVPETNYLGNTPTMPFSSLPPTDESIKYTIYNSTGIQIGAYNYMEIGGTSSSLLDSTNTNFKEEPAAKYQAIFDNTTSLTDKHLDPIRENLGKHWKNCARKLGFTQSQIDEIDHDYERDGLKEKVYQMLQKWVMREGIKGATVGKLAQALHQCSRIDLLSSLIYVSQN
The test can be described thus: RIPK1 inhibitory activity, DiscoverX scanMAX kinase panel (% control). The class given is binding. Conditions: drug concentration 1 μM in DMSO, <35% counted as active, read-out: control percentage (% control) RIPK1. How it is done:
To evaluate the RIPK1 inhibitory activity of a compound according to the present invention, the following experiment was performed. Specifically, for Examples 3 and 30 selected from the compounds of Examples of the present invention, enzyme (kinase) selectivity was measured by DiscoverX, and the experiment was conducted using a panel for scanMAX™ kinase analysis. Here, the enzyme was treated with a drug having a concentration of 1 μM in DMSO, and a control percentage (% control) was determined in the same manner as Formula 1 below.
Here, the positive control refers to a compound showing a control percentage of 0%, and the negative control is DMSO showing a control percentage of 100%. In addition, in terms of the enzyme selectivity of the present invention, when the control percentage with respect to an enzyme is <35% (i.e., less than 35%), it was determined that the compound has activity against the corresponding enzyme.

The term EC50 denotes the concentration giving half of the maximal effect.

The structures appear in SMILES notation.

Take `COc1ncc(-c2ccc3nc(N)nn3c2)cc1NC(=O)N1OCC[C@H]1c1ccccc1` [Example 30, (S)-N-(5-(2-amino-[1,2,4]triazolo[1,5-a]pyridin-6-yl)-2-methoxypyridin-3-yl)-3-phenylisoxazolidine-2-carboxamide]: the EC50 in the test on HT-29 cells turned out to be 3.8 nM. Moreover, the remaining binding at 1 µM at RIPK1 was 0%. As for `Cc1ncc(-c2ccc3c(N)ncnn23)cc1NC(=O)N1OCC[C@H]1c1ccccc1` [Example 120, (S)-N-(5-(4-aminopyrrolo[2,1-f][1,2,4]triazin-7-yl)-2-methylpyridin-3-yl)-3-phenylisoxazolidine-2-carboxamide], in the test on HT-29 cells, the EC50 stood at 1 nM. Still for that read-out and setting: the figure for `CNC(=O)c1n[nH]c2cc(-c3cccc(NC(=O)N4OCC[C@H]4c4ccccc4)c3)ccc12` [Example 17, (S)-N-(3-(3-(methylcarbamoyl)-1H-indazol-6-yl)phenyl)-3-phenylisoxazolidine-2-carboxamide] is 0.1 nM; for `O=C(Nc1cn2nc(-c3cccc(NC(=O)N4OCC[C@H]4c4ccccc4)c3)ccc2n1)C1CC1` [Example 2, (S)-N-(3-(2-(cyclopropanecarboxamido)imidazo[1,2-b]pyridazin-6-yl)phenyl)-3-phenylisoxazolidine-2-carboxamide] it is 0.2 nM; for `Cc1ccc(-c2ccc3nc(N)nn3c2)cc1NC(=O)N1OCC[C@H]1c1ccc(Cl)cc1` [Example 67, (S)-N-(5-(2-amino-[1,2,4]triazolo[1,5-a]pyridin-6-yl)-2-methylphenyl)-3-(4-chlorophenyl)isoxazolidine-2-carboxamide] it is 0.4 nM. `Cc1ccc(-c2ccc3nc(N)nn3c2)cc1NC(=O)N1OCC[C@H]1c1ccccc1` [Example 32, (S)-N-(5-(2-amino-[1,2,4]triazolo[1,5-a]pyridin-6-yl)-2-methylphenyl)-3-phenylisoxazolidine-2-carboxamide]: the EC50 in the test with HT-29 cells turned out to be 0.6 nM.

For `Cc1ccc(-c2ccn3nc(N)nc3c2)cc1NC(=O)N1OCC[C@H]1c1ccccc1` [Example 61, (S)-N-(5-(2-amino-[1,2,4]triazolo[1,5-a]pyridin-7-yl)-2-methylphenyl)-3-phenylisoxazolidine-2-carboxamide], the EC50 in the test with HT-29 cells was determined as 0.2 nM. Same read-out and setting: the figure for `Cc1ccc(-c2ccc3ncsc3n2)cc1NC(=O)N1OCC[C@H]1c1ccccc1` [Example 131, (S)-N-(2-methyl-5-(thiazolo[5,4-b]pyridin-5-yl)phenyl)-3-phenylisoxazolidine-2-carboxamide] is 4 nM. On the same count and under the same terms, the figure for `CNC(=O)c1n[nH]c2cc(-c3cncc(NC(=O)N4OCC[C@H]4c4ccccc4)c3)ccc12` [Example 19, (S)-N-(5-(3-(methylcarbamoyl)-1H-indazol-6-yl)pyridin-3-yl)-3-phenylisoxazolidine-2-carboxamide] is 1 nM; for `COc1ncc(-c2cc(C(F)(F)F)c3c(N)ncnn23)cc1NC(=O)N1OCC[C@H]1c1ccccc1` [Example 129, (S)-N-(5-(4-amino-5-(trifluoromethyl)pyrrolo[2,1-f][1,2,4]triazin-7-yl)-2-methoxypyridin-3-yl)-3-phenylisoxazolidine-2-carboxamide] it is 3.6 nM. Still for that read-out and setting: the result for `Nc1nc2ccc(-c3ccc(Cl)c(NC(=O)N4OCC[C@H]4c4ccccc4)c3F)cn2n1` [Example 105, (S)-N-(3-(2-amino-[1,2,4]triazolo[1,5-a]pyridin-6-yl)-6-chloro-2-fluorophenyl)-3-phenylisoxazolidine-2-carboxamide] reads 43.8 nM; that for `Cc1ncc(-c2ccc3nc(NC(=O)C4CC4)cn3n2)cc1NC(=O)N1OCC[C@H]1c1ccccc1` [Example 10, (S)-N-(5-(2-(cyclopropanecarboxamido)imidazo[1,2-b]pyridazin-6-yl)-2-methylpyridin-3-yl)-3-phenylisoxazolidine-2-carboxamide], 0.3 nM; that for `Cc1ccc(-c2ccn3nc(N)cc3c2)cc1NC(=O)N1CCO[C@@H](c2ccccc2)C1` [Example 137, (S)-N-(5-(2-aminopyrazolo[1,5-a]pyridin-5-yl)-2-methylphenyl)-2-phenylmorpholine-4-carboxamide], 49.2 nM. In the case of `Cc1ccc(-c2ccn3nc(N)cc3c2)cc1NC(=O)N1OCC2(CC2)[C@H]1c1ccccc1` [Example 140, (R)-N-(5-(2-aminopyrazolo[1,5-a]pyridin-5-yl)-2-methylphenyl)-7-phenyl-5-oxa-6-azaspiro[2.4]heptane-6-carboxamide], in the test on HT-29 cells, the EC50 came to 1.7 nM. The same measure, in the same setting: the figure for `Cc1ccc(-c2ccc3nccn3c2)cc1NC(=O)N1OCC[C@H]1c1ccccc1` [Example 113, (S)-N-(5-(imidazo[1,2-a]pyridin-6-yl)-2-methylphenyl)-3-phenylisoxazolidine-2-carboxamide] is 2.4 nM. On the same count and under the same terms, the result for `Cc1ccc(-c2ccc3c(N)ncnn23)cc1NC(=O)N1OCC[C@H]1c1ccccc1` [Example 100, (S)-N-(5-(4-aminopyrrolo[2,1-f][1,2,4]triazin-7-yl)-2-methylphenyl)-3-phenylisoxazolidine-2-carboxamide] reads 4.6 nM; that for `Cc1ncc(-c2ccc3nc(N)nn3c2)cc1NC(=O)N1OCC[C@H]1c1cccc(Cl)c1` [Example 39, (S)-N-(5-(2-amino-[1,2,4]triazolo[1,5-a]pyridin-6-yl)-2-methylpyridin-3-yl)-3-(3-chlorophenyl)isoxazolidine-2-carboxamide], 0.9 nM. In the case of `COc1ccc(-c2ccc3nnn(C(C)C)c3c2)cc1NC(=O)N1OCC[C@H]1c1ccccc1` [Example 15, (S)-N-(5-(1-isopropyl-1H-benzo[d][1,2,3]triazol-6-yl)-2-methoxyphenyl)-3-phenylisoxazolidine-2-carboxamide], the EC50 in the test with HT-29 cells turned out to be 23.9 nM.

In the case of `Cc1ccc(-c2ccc3nc(N)nn3c2)cc1NC(=O)N1OCC[C@H]1c1cc(F)cc(F)c1` [Example 59, (S)-N-(5-(2-amino-[1,2,4]triazolo[1,5-a]pyridin-6-yl)-2-methylphenyl)-3-(3,5-difluorophenyl)isoxazolidine-2-carboxamide], the concentration giving a half-maximal response (EC50) in the test with HT-29 cells came out at 0.7 nM. On the same count and under the same terms, the result for `Cc1ccc(-c2ccc3nc(N)c(C(=O)[C@@H]4C[C@@H]4F)n3c2)cc1NC(=O)N1OCC[C@H]1c1ccccc1` [Example 135, (S)-N-(5-(2-amino-3-((1S,2S)-2-fluorocyclopropane-1-carbonyl)imidazo[1,2-a]pyridin-6-yl)-2-methylphenyl)-3-phenylisoxazolidine-2-carboxamide] reads 0.2 nM; that for `Cc1ccc(-c2csc3c(N)ncnc23)cc1NC(=O)N1OCC[C@H]1c1ccccc1` [Example 122, (S)-N-(5-(4-aminothieno[3,2-d]pyrimidine-7-yl)-2-methylphenyl)-3-phenylisoxazolidine-2-carboxamide], 20.4 nM; that for `Cc1ncc(-c2csc3c(N)ncnc23)cc1NC(=O)N1OCC[C@H]1c1ccccc1` [Example 121, (S)-N-(5-(4-aminothieno[3,2-d]pyrimidine-7-y1)-2-methylpyridin-3-yl)-3-phenylisoxazolidine-2-carboxamide], 11.7 nM.

For the molecule `Cc1ccc(-c2ccc3ncc(C#CC(C)(C)O)n3c2)cc1NC(=O)N1OCC[C@H]1c1ccccc1` [Example 115, (S)-N-(5-(3-(3-hydroxy-3-methylbut-1-yn-1-yl)imidazo[1,2-a]pyridin-6-yl)-2-methylphenyl)-3-phenylisoxazolidine-2-carboxamide], the EC50 in the test on HT-29 cells came out at 1.7 nM.

Turning to `Cc1ncc(-c2ccc3nc(N)nn3c2)cc1NC(=O)N1OCC[C@H]1c1cccc(C(F)(F)F)c1` [Example 41, (S)-N-(5-(2-amino-[1,2,4]triazolo[1,5-a]pyridin-6-yl)-2-methylpyridin-3-yl)-3-(3-(trifluoromethyl)phenyl)isoxazolidine-2-carboxamide], the EC50 in the test on HT-29 cells was found to be 1 nM.

On to `COc1ncc(-c2csc3c(N)ncnc23)cc1NC(=O)N1OCC[C@H]1c1ccccc1` [Example 128, (S)-N-(5-(4-aminothieno[3,2-d]pyrimidine-7-yl)-2-methoxypyridin-3-yl)-3-phenylisoxazolidine-2-carboxamide], for which, in the test on HT-29 cells, the EC50 amounted to 38.2 nM.

Take `Cc1ncc(-c2ccc3nc(N)nn3c2)cc1NC(=O)N1OCC[C@H]1c1ccc(F)cc1` [Example 56, (S)-N-(5-(2-amino-[1,2,4]triazolo[1,5-a]pyridin-6-yl)-2-methylpyridin-3-yl)-3-(4-fluorophenyl)isoxazolidine-2-carboxamide]: in the test with HT-29 cells, the EC50 amounted to 0.7 nM.
